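Dose response: 5 concentrations. Exposure: 48 h. Format: 96-well plates. Endpoint: linear interpolation; highest concentration if not reached. At the GI50, growth is halved.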 The source made the active and inactive calls. No stated cut-off is given here; in the data, active = GI50 up to about 1.1 µM and inactive = higher.
How the values were obtained:
Experiment in all cases: DTP human tumour cell line panel, 48 h
SK-MEL-2 = system: SK-MEL-2
SF-295 = system: SF-295
UACC-257 = system: UACC-257
SN12C = system: SN12C
NCI-H23 = system: NCI-H23
NCI/ADR-RES = system: NCI/ADR-RES
HOP-62 = system: HOP-62
MCF7 = system: MCF7
DU-145 = system: DU-145
SNB-19 = system: SNB-19
786-0 = system: 786-0
M14 = system: M14
HOP-92 = system: HOP-92
UACC-62 = system: UACC-62
NCI-H522 = system: NCI-H522
KM12 = system: KM12
HCT-116 = system: HCT-116
MOLT-4 = system: MOLT-4
HCC 2998 = system: HCC 2998
EKVX = system: EKVX

Row | Structure (SMILES) | GI50 (SK-MEL-2) | GI50 (SF-295) | GI50 (UACC-257) | GI50 (SN12C) | GI50 (NCI-H23) | GI50 (NCI/ADR-RES) | GI50 (HOP-62) | GI50 (MCF7) | GI50 (DU-145) | GI50 (SNB-19) | GI50 (786-0) | GI50 (M14) | GI50 (HOP-92) | GI50 (UACC-62) | GI50 (NCI-H522) | GI50 (KM12) | GI50 (HCT-116) | GI50 (MOLT-4) | GI50 (HCC 2998) | GI50 (EKVX)
1 | COc1cc(/C=N/n2c(-c3ccccc3)nn(C(C)=O)c2=O)cc(OC)c1OC | 1.72 µM (inactive) | 1.02 µM (active) | 3.24 µM (inactive) | 5.33 µM (inactive) | 4.07 µM (inactive) | 1.25 µM (inactive) | 12 µM (inactive) | 0.684 µM (active) | 4.46 µM (inactive) | 2.56 µM (inactive) | 4.36 µM (inactive) | 2.14 µM (inactive) | > 33.9 µM (inactive) | 1.92 µM (inactive) | 0.818 µM (active) | 0.521 µM (active) | 0.927 µM (active) | 0.714 µM (active) | 0.748 µM (active) | 8.81 µM (inactive)
2 | CCc1nn(CN2CCN(C)CC2)c(=S)n1/N=C\c1ccc(-c2ccc([N+](=O)[O-])cc2)o1 | 74.3 µM (inactive) | 40.7 µM (inactive) | 57.7 µM (inactive) | 58.2 µM (inactive) | 34.9 µM (inactive) | 25.9 µM (inactive) | 28.4 µM (inactive) | 40.5 µM (inactive) | 50.2 µM (inactive) | 33.7 µM (inactive) | 29.9 µM (inactive) | 80.4 µM (inactive) | 30.4 µM (inactive) | 39 µM (inactive) | 51.5 µM (inactive) | > 100 µM (inactive) | 58.5 µM (inactive) | 34.7 µM (inactive) | 48.5 µM (inactive) | 43.4 µM (inactive)
3 | CC[S+]([O-])c1c2cc(OC)ccc2nc2ccc(OC)cc12 (stereo not given) | 17.5 µM (inactive) | 27.1 µM (inactive) | 5.45 µM (inactive) | 4.58 µM (inactive) | 6.05 µM (inactive) | 20.4 µM (inactive) | 21.5 µM (inactive) | 2.84 µM (inactive) | 2.59 µM (inactive) | 20 µM (inactive) | 2.56 µM (inactive) | 10.2 µM (inactive) | 7.16 µM (inactive) | 16.9 µM (inactive) | 1.83 µM (inactive) | 16.2 µM (inactive) | 3.19 µM (inactive) | 4.07 µM (inactive) | 16.6 µM (inactive) | 16.9 µM (inactive)
